In patent US4250259A, “Microbiological production of ketones from C3 -C6 secondary alcohols” (priority 1979, dated 1981):

How the values were obtained:
Pichia sp. NRRL-Y-11328 = test: sec-alcohols to ketones by cell suspensions of yeasts; type: cell-based
[1] = system: cell extracts (NAD+-dependent secondary alcohol dehydrogenase); test: sec-alcohols to methyl ketones by cell extracts of yeasts, gas chromatography; type: biochemical, Hansenula polymorpha ATCC 26,012; details: grown on methanol
[2] = system: Methylococcus capsulatus, Texas (ATCC 19069); test: sec-alcohols to ketones by resting cell suspensions; type: cell-based
Protocol: (§1) The pH of the nutrient medium was adjusted to 7.0 by the addition of acid or base and 50 ml. samples of the nutrient medium were charged into a plurality of 300 ml. shaker flasks. The shaker flasks were inoculated with an inoculating loop of cells from an agar plate containing homogeneous colonies of the microorganisms on the plate (the purity of the isolates was confirmed by microscopic examination). The isolates had been maintained on methanol (0.4% V/V) agar plates or on agar plates under an atmosphere of methane and air having a 1:1 V/V gas ratio which had been transferred every two weeks. For growth on methanol, the medium was supplemented with 0.4% methanol. For growth on methane, the gaseous phase of the inoculated flasks was replaced with a gas mixture comprised of methane and air having a ratio of 1:1 on a V/V basis. The inoculated flasks were sealed air-tight and were incubated on a rotary shaker of orbital radius 2.5 cm. at 250 rpm and at 30° C. for two days until turbidity in the medium had developed. The cells were harvested by centrifugation at 10,000×g. at 4° C. for 30 minutes. The cell pellet was washed twice with a 0.05 M phosphate buffer at a pH of 7.0 (containing 0.02 M MgCl2). The washed cells were then suspended in a 0.05 M phosphate buffer at pH 7.0.
(§2) A 0.5 ml. sample of each washed cell suspension (2 mg. cells) was put into 10 ml. vials at 4° C. which were sealed with a rubber cap. The gaseous phase of the vials was removed with vacuum and then was replaced with a gas mixture of the substrate reactant (i.e., alkane or secondary alcohol) and oxygen at a 1:1 V/V ratio. (In the case of a liquid substrate, i.e., secondary alcohol, 10 μl of the substrate was put in the 10 ml. vials). […] Samples of product (1-3 μl) were withdrawn periodically with a microsyringe and the products were analyzed by gas chromatography (ionization flame detector column).
(§3) The procedure in Example 1 was repeated wherein a plurality of the methane-utilizing methylotrophic microorganisms were each grown aerobically in a nutrient medium containing methane as the alcohol dehydrogenase enzyme inducer and as the major carbon and energy source for growth. The cells were harvested and washed as described in Example 1. The resting microbial cells of the induced methane-grown methane-utilizing methylotrophic microorganisms were then contacted with C3 -C6 secondary alcohols in a buffered solution by the procedure of Example 1.
(§4) In this example, the procedure in Example 1 was repeated except that a plurality of methane-utilizing methylotrophic microorganisms were each aerobically grown in a methanol-containing nutrient medium instead of a methane-containing medium. The nutrients in the medium were the same as indicated in Example 1 except that 0.4% V/V methanol was used as the alcohol dehydrogenase inducer and major source of carbon and energy for growth. Following growth, the cells were harvested and washed as described in Example 1.
(§5) The resting cells of the induced methanol-grown methylotrophic microorganisms were then contacted with secondary alcohols in a buffered solution by the procedure described in Example 1.

[3] = system: Methylocystis parvus OBBP (NRRL B-11,198); test: as above; type: cell-based
Protocol: as §1, §2, §3, §4, §5

[4] = system: Methylobacter capsulatus Y (NRRL B-11,201); test: as above; type: cell-based
Protocol: as §1, §2, §3, §4, §5

[5] = system: Methylomonas methanica S1 (NRRL B-11,199); test: as above; type: cell-based
Protocol: as §1, §2, §3, §4, §5

[6] = system: Candida utilis ATCC 26387; test: sec-alcohols to ketones by cell suspensions of yeasts; type: cell-based
[7] = system: secondary alcohol dehydrogenase (SADH), cell-free soluble extract; test: oxidation of sec-alcohols by cell-free soluble extracts; type: biochemical, Methylobacterium organophilum CRL 26 (NRRL B-11,222); details: soluble crude extract; grown on methanol
Protocol: To prepare the cell-free secondary alcohol dehydrogenase (SADH) system, the washed cells were disrupted with a Wave Energy Ultrasonic Oscillator, Model W201 (Wave Energy System, Inc., Newtown, Pa.) and centrifuged at 20,000×g. for 30 minutes. […] The enzyme activity was measured with a fluorescence spectrophotometer (Perkin Elmer, Model MPF 44A) by following the formation of reduced NAD (EX 340 nm, Em 460 nm). The formation of reduced NAD was also followed with an absorption spectrophotometer at 340 nm. The assay system (3 ml.) contained: potassium phosphate buffer pH 7.0; 150 μmol.; NAD 1 μmol.; a given amount of enzyme preparation; and secondary alcohol 10 μmol. The reaction was started by the addition of substrate. One unit of enzyme activity represents the reduction of one μmole NAD per minute. Protein concentrations were determined by the Lowry method (J. Biol. Chem., 193: 255-275 (1951)).
The experimental procedure for the tests reported in Table VIII were as follows: 1 mg protein of crude extract was added into a 0.5 ml. 0.05 M phosphate buffer (pH 7.0) in a 10-ml. vial. […] The reaction mixture was incubated at 30° C. on a water bath. A 3 μl sample was removed with a syringe at 15 min. of incubation and was assayed with g.l.c. Catalytic activity was also assayed by fluorescence spectrophotometry.

[8] = system: cell extracts (NAD+-dependent secondary alcohol dehydrogenase); test: sec-alcohols to methyl ketones by cell extracts of yeasts, gas chromatography; type: biochemical, Torulopsis sp. strain A1 NRRL-Y-11,419; details: grown on methanol
[9] = system: cell extracts (NAD+-dependent secondary alcohol dehydrogenase); test: as above; type: biochemical, Kloeckera sp. strain A2 NRRL-Y-11,420; details: grown on methanol
[10] = system: cell extracts (NAD+-dependent secondary alcohol dehydrogenase); test: as above; type: biochemical, Candida utilis ATCC 26,387; details: grown on methanol
Protocol: The supernantant liquid was termed the crude extracts.
The reaction mixture, in a total of 3.0 ml., contained 50 mM phosphate buffer, pH 7.0, 20 μmole NAD^+, cell extracts (1 ml.).
The ketone product obtained from oxidation of sec-alcohols by cell extracts of organisms were estimated by flame ionization gas chromatography by using a stainless steel column (12 ft. by 1/8 in.) packed with 10% Carbowax 20 M on 80/100 chromosorb w column (Perkin Elmer Corp., Norwalk, Conn.). The column temperature was maintained isothermally at 130° C. and the carrier gas flow was 30 ml. of helium per min. […] The protein content of cell-suspensions was determined by the Lowry et al. method.
NRRL Y-11,328 Torulopsis sp.

CCCCC(C)O (centres unmarked) [2-Hexanol, 2-hexanol]
Conversion Rate, sec-alcohol to corresponding ketone (Pichia sp. NRRL-Y-11328; Growth Substrate Ethanol): 0.28 μmoles/hr/mg of protein | Conversion Rate, sec-alcohol to corresponding ketone (Pichia sp. NRRL-Y-11328; Growth Substrate Methanol): 0.50 μmoles/hr/mg of protein | Conversion Rate, sec-alcohol to corresponding ketone (Pichia sp. NRRL-Y-11328; Growth Substrate Methylamine): 0.31 μmoles/hr/mg of protein | Conversion Rate, sec-alcohol to corresponding ketone (Pichia sp. NRRL-Y-11328; Growth Substrate Methylformate): 0.48 μmoles/hr/mg of protein | Conversion Rate, sec-alcohol to corresponding ketone (Pichia sp. NRRL-Y-11328; Growth Substrate Propylamine): 0.21 μmoles/hr/mg of protein | Conversion Rate, sec-alcohol to methyl ketone [1]: 0.51 μmoles/hr/mg Protein | Conversion Rates, sec-alcohol to corresponding ketone ([2]; cells grown on methane): 1.0 μmoles/hr/mg protein | Conversion Rates, sec-alcohol to corresponding ketone ([2]; cells grown on methanol): 1.3 μn moles/hr/mg protein | Conversion Rates, sec-alcohol to corresponding ketone ([3]; cells grown on methane): 0.065 μmoles/hr/mg protein | Conversion Rates, sec-alcohol to corresponding ketone ([3]; cells grown on methanol): 0.05 μn moles/hr/mg protein | Conversion Rates, sec-alcohol to corresponding ketone ([4]; cells grown on methane): 0.1 μmoles/hr/mg protein | Conversion Rates, sec-alcohol to corresponding ketone ([4]; cells grown on methanol): 0.12 μn moles/hr/mg protein | Conversion Rates, sec-alcohol to corresponding ketone ([5]; cells grown on methane): 0.01 μmoles/hr/mg protein | Conversion Rates, sec-alcohol to corresponding ketone ([5]; cells grown on methanol): 0.04 μn moles/hr/mg protein | Conversion Rate, sec-alcohol to corresponding ketone ([6]; Growth Substrate Ethanol): 0.72 μmoles/hr/mg of protein | Conversion Rate, sec-alcohol to corresponding ketone ([6]; Growth Substrate Methanol): 0.8 μmoles/hr/mg of protein | Conversion Rate, sec-alcohol to corresponding ketone ([6]; Growth Substrate Methylamine): 0.61 μmoles/hr/mg of protein | Conversion Rate, sec-alcohol to corresponding ketone ([6]; Growth Substrate Methylformate): 0.75 μmoles/hr/mg of protein | Conversion Rate, sec-alcohol to corresponding ketone ([6]; Growth Substrate Propylamine): 0.52 μmoles/hr/mg of protein | Oxidation Rate, sec-alcohol to corresponding ketone [7]: 0 nmole/min/mg protein | Conversion Rate, sec-alcohol to methyl ketone [8]: 0.21 μmoles/hr/mg Protein | Conversion Rate, sec-alcohol to methyl ketone [9]: 0.25 μmoles/hr/mg Protein | Conversion Rate, sec-alcohol to methyl ketone [10]: 0.45 μmoles/hr/mg Protein
